Results on 72 compounds are retold here after PubChem BioAssay AID179 (DTP/NCI, 2004).

SMILES strings stand for the structures. Activity calls are given as the source filed them.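 The calls were made as follows: active = compounds giving half or more protection of infected cells from virus-caused growth loss, again on retest; inactive = the rest.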

The subject of the assay is CEM cells HIV-1 protection, formazan growth assay. Description: NCI AIDS Antiviral Assay. To be noted: for IC50: measured here: growth of uninfected CEM cells. The procedure, abridged: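 Protection of CEM cells against HIV-1 was scored from cell growth (soluble formazan) across five concentrations, with parallel uninfected cells. Lack of protection may reflect toxicity.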

What is called EC50 is the concentration at which the effect is half-maximal. The term IC50 denotes the concentration that gives 50% inhibition. Low values mean greater potency in that assay, high ones weaker potency in that assay. On to `COc1ccccc1-n1c(C)nc2ccccc2c1=O`, for which the EC50 is more than 186 µM and the IC50 is more than 186 µM.

With `O=c1ccn([C@@H]2C[C@H](CO)[C@H](O)C2)c(=O)[nH]1`, the EC50 was more than 1100 µM and the IC50 is more than 1100 µM.

Turning to `O=S(OO)c1cc(Cl)c(O)c(Cl)c1` (stereo not drawn), the EC50 is more than 1020 µM and the IC50 is more than 1020 µM.

Regarding `O=C(NNc1nc2cccnc2n2ccnc12)c1cnccn1`, the EC50 was more than 1 µM and the IC50 was found to be 0.135 µM.

With `O=C(Nc1ccccc1C(=O)O)C(=O)C(C(=O)c1ccccc1-c1ccccc1)C1OC(=O)c2ccccc21` (stereo not drawn), the EC50 is more than 50.1 µM and the IC50 was 25.1 µM.

Take `Cc1ccc(S(=O)(=O)NC(=O)Nc2nc(Cl)cc(Cl)n2)cc1`: the EC50 is more than 100 µM and the IC50 amounted to 87.1 µM.

The compound `Cc1ccc(C(=O)c2c(C)cccc2C(=O)O)c(C)c1` came in with an EC50 of more than 200 µM and a concentration for half-maximal inhibition (IC50) of more than 200 µM.

With `O=C1OC2(c3ccc(O)cc3Oc3cc(O)ccc32)c2c1c(-c1ccccc1)c(-c1ccccc1)c(-c1ccccc1)c2-c1ccccc1`, the EC50 is 10 µM and the IC50 was determined as 16.6 µM.

In the case of `O=Nc1c(-c2ccccc2)[nH]oc1=O`, the EC50 was more than 200 µM and the IC50 came out at 36.3 µM.

Regarding `NC1=C(O)/C(=N/NS(=O)(=O)c2ccccc2)C(c2cccc(Cl)c2)O1` (stereo not drawn), the EC50 is more than 661 µM and the IC50 is 32.4 µM.

For the compound `O=C(C[n+]1ccncc1)c1ccc2c(c1)CCCC2`, the EC50 is 0.0631 µM and the IC50 is more than 200 µM.

Turning to `CSc1nc(C(N)=O)c(N)c(=O)[nH]1`, the EC50 was more than 468 µM and the IC50 is 126 µM.

Turning to `O=C1CCCCC/C=C2/CC[C@H](Sc3ccccc3)[C@@H]12`, the EC50 is more than 200 µM and the IC50 was 53.7 µM.

`COC1(OC)N=C(N)C2(C#N)C3(C(=O)N(C(C)C)N=C3C)C12C#N` (stereo not drawn): the EC50 was more than 200 µM and the IC50 is more than 200 µM.

As to `CC(=O)c1cccc(C(C)=O)c1N=Cc1ccccc1`, the outcome was inactive.

Take `CN(C)C(=O)COc1ccc(Cl)cc1Cl`: the EC50 is more than 200 µM and the IC50 was more than 200 µM.

Regarding `NC(=S)Nc1nnc(-c2ccc(-c3nnc(NC(N)=S)o3)cc2)o1`, the outcome was inactive.

As to `Nc1cc2cccc[n+]2c2cccc(Cl)c12`, the EC50 is more than 200 µM and the IC50 worked out at 4.47 µM.

Consider `Cn1c(=O)c(C(=O)NC(=O)OCc2ccccc2)cn(CCCOC(=O)CCCCCCCCC(=O)OCCCn2cc(C(=O)NC(=O)OCc3ccccc3)c(=O)n(C)c2=O)c1=O`, for which the EC50 is more than 21.4 µM and the IC50 is more than 21.4 µM.

Regarding `COc1ccc(N2C(=O)C(=O)C3(CCCCC3)C2=O)c(OC)c1OC`, the EC50 is more than 200 µM and the IC50 was more than 200 µM.

As for `COC(=O)C1C2CC3C(OC(=O)C31)C2OC(=O)[C@](OC)(c1ccccc1)C(F)(F)F` (stereo partly drawn), the EC50 was more than 83.2 µM and the IC50 is more than 83.2 µM.

Consider `COC(=O)c1cc(C(=CCCC(C)[C@H]2CCC3C4CC[C@@H]5CCCC[C@]5(C)C4CC[C@@]32C)c2cc(Cl)c(OC)c(C(=O)OC)c2)cc(Cl)c1OC` (stereo partly drawn), for which the EC50 was more than 200 µM and the IC50 was 39.8 µM.

Regarding `Cc1cccc(C)c1C1(Cl)C(=O)c2ccccc2C1=O`, the EC50 is more than 200 µM and the IC50 worked out at 13.5 µM.

For `COc1cc(N=Nc2cc(S(=O)(=O)O)cc3cc(S(=O)(=O)O)cc(O)c23)c(C)cc1N=Nc1c(S(=O)(=O)O)cc2cc(Nc3ccccc3)ccc2c1O`, the result was inactive.

In the case of `CCCCCCCCCCc1c2nc(c(CCCCCCCCCC)c3ccc([nH]3)c(CCCCCCCCCC)c3ccc([nH]3)c(CCCCCCCCCC)c3nc1C=C3)C=C2`, the EC50 was more than 100 µM and the IC50 was more than 100 µM.

As to `COc1ccc2c(c1OC)[C@]13CCCC[C@@H]1[C@H](C2)N(C)CC3`, the result was inactive.

Consider `Cc1cc(=O)n(-c2ccccc2)c(=O)n1-c1nc2ccccc2[nH]1`, for which the EC50 is more than 112 µM and the IC50 was found to be 64.6 µM.

Take `COC(=O)c1cc(C(=CCCO)c2cc(Br)c(OC)c(C(=O)OC)c2)cc(Br)c1OC`: the EC50 is more than 200 µM and the IC50 stood at 12.6 µM.

Regarding `NC(N)=NCCN1CC2CCC(CC2)C1`, the EC50 is 61.7 µM and the IC50 worked out at 151 µM.

Consider `CCc1cccc(C)c1NC(=O)CC1C(=O)Nc2ccccc2S1=O` (stereo not drawn), for which the outcome was inactive.

For the compound `CCOC(=O)N1N=NC2C3OC(C[C@@]3(C#N)OC(C)=O)[C@H]21` (stereo partly drawn), the outcome was inactive.

As to `Cc1ccccc1N1OS(=O)(=O)CC1(C#N)c1ccccc1` (stereo not drawn), the EC50 is more than 83.2 µM and the IC50 was more than 83.2 µM.

On to `COc1cc(C2=C(C)[C@@H]3CN(CC=C3c3ccc(Cl)cc3)C2)c(S(=O)(=O)O)cc1OC`, for which the outcome was inactive.

As to `COc1ccc(-c2oc3cc(OC)c(OC)c(OC)c3c(=O)c2OC)cc1OC`, the EC50 was more than 200 µM and the IC50 is 3.8 µM.

In the case of `COc1ccc(/C=N/n2c(=O)[nH]c3ccccc3c2=O)cc1`, the EC50 was more than 200 µM and the IC50 is more than 200 µM.

Consider `CC(C)c1cc2c(O)c(c1)Cc1cc(C(C)C)cc(c1O)Cc1cc(C(C)C)cc(c1O)Cc1cc(C(C)C)cc(c1O)Cc1cc(C(C)C)cc(c1O)Cc1cc(C(C)C)cc(c1O)C2`, for which the EC50 was more than 14.5 µM and the IC50 is more than 14.5 µM.

As for `C/C(=N/NC(=S)Nc1ccccc1Cl)c1cccc(/C(C)=N\NC(=S)Nc2ccccc2Cl)n1`, the EC50 was more than 200 µM and the IC50 is 87.1 µM.

As for `O=C1C[N+]2(Cc3ccccc3)CCC1CC2`, the EC50 was more than 851 µM and the IC50 was more than 851 µM.

Regarding `Cc1ccc2c(c1)S(=O)(=O)N(C)C(c1ccccc1)=C2`, the EC50 is more than 18.2 µM and the IC50 is more than 18.2 µM.

On to `CCOC1OCN(C)CC1(C)C` (stereo not drawn), for which the EC50 was more than 1450 µM and the IC50 is 79.4 µM.

As to `O=Cc1c(O)c2ccccc2[nH]c1=O`, the EC50 is more than 5.5 µM and the IC50 was more than 5.5 µM.

As to `CNc1ccccc1S(=O)(=O)c1ccccc1[N+](=O)[O-]`, the EC50 was 3.55 µM and the IC50 came out at 47.9 µM.

With `O=S(=O)(F)c1ccc(Cl)cc1C[P+](c1ccccc1)(c1ccccc1)c1ccccc1`, the EC50 was more than 200 µM and the IC50 worked out at 87.1 µM.

In the case of `N#C/C(=C\c1ccccc1F)C(=O)c1ccccc1`, the EC50 is more than 75.9 µM and the IC50 was more than 75.9 µM.

For `COc1ccc(SCc2ccc(C(=O)O)cc2)cc1`, the EC50 was more than 26.3 µM and the IC50 is more than 26.3 µM.

For `CCCCCCCC/C=C/CCCCCCCC1CC(O)C(=O)O1` (stereo not drawn), the EC50 is more than 200 µM and the IC50 stood at 191 µM.

Consider `Cc1ccc(C2=C(c3ccccc3)C(O)(c3ccccc3)C(c3ccccc3)=C2c2ccc(C)cc2)cc1`, for which the EC50 is more than 7.76 µM and the IC50 was more than 7.76 µM.

Take `COc1c(C(C)C)cc2c3c1OC(=O)[C@@]31CCCC(C)(C)C1CC2` (stereo partly drawn): the EC50 was more than 200 µM and the IC50 worked out at 30.9 µM.

With `c1ccc2c(c1)SCCCSCCCS2`, the EC50 was more than 28.2 µM and the IC50 was more than 28.2 µM.

Regarding `CC(C)COC(=O)c1ccc(N=Cc2ccc(C=Nc3ccc(C(=O)OCC(C)C)cc3)cc2)cc1`, the EC50 was more than 10.7 µM and the IC50 was more than 10.7 µM.

With `CC(=O)OC12CCCC(=O)C1C1CC/C=C\CCC12` (stereo not drawn), the EC50 was more than 170 µM and the IC50 was 105 µM.

As for `CC(=O)OC1COC(n2c(=S)n(-c3ccccc3)c(=O)c3ccccc32)C(OC(C)=O)C1OC(C)=O` (stereo not drawn), the EC50 is more than 36.3 µM and the IC50 is more than 36.3 µM.

Regarding `CC(=Nc1ccc(Cl)cc1)c1ccncc1`, the result was inactive.

With `COC(=O)c1nc(-c2nc(CCNC(=O)OC(C)(C)C)sc2Cl)sc1Cl`, the EC50 is more than 4.27 µM and the IC50 is more than 4.27 µM.

Turning to `CC(C)(C)OC(=O)N/N=C(/N)Cc1ccc(Cl)cc1`, the EC50 was more than 200 µM and the IC50 worked out at 162 µM.

For the compound `CN(C)/C=C(\C(=O)c1ccccc1)n1nc(-c2ccccc2)cc1-c1ccccc1`, the EC50 is more than 200 µM and the IC50 was 87.1 µM.

Take `O=S(=O)(O)C(I)S(=O)(=O)O`: the EC50 was more than 200 µM and the IC50 was more than 200 µM.

Regarding `Nc1nn2cc3c(nc2c1N=Nc1ccc(Cl)cc1)-c1ccccc1CC3`, the EC50 is more than 100 µM and the IC50 was more than 100 µM.

For `CCOC(=O)C(C#N)C(C)CC` (stereo not drawn), the EC50 was more than 200 µM and the IC50 was more than 200 µM.

Regarding `C/C(Cl)=N\OC(=O)Nc1ccc([N+](=O)[O-])cc1`, the EC50 is more than 200 µM and the IC50 was 10.5 µM.

For the compound `Cc1cc(C)cc(OCC2CNC(=O)O2)c1` (stereo not drawn), the EC50 was more than 200 µM and the IC50 was more than 200 µM.

Turning to `CCC(C(=O)c1ccccc1)C(CCCC(=O)Nc1c(C)cccc1C)N=O` (stereo not drawn), the EC50 was more than 661 µM and the concentration for half-maximal inhibition (IC50) amounted to 355 µM.

Regarding `c1ccc(-n2cnnc2-c2nsc3ccccc23)cc1`, the EC50 was more than 93.3 µM and the IC50 was more than 93.3 µM.

With `COc1cc2c3cc1Oc1c(OC)c(OC)cc4c1C(Cc1ccc(O)c(c1)Oc1ccc(cc1)CC3N(C)CC2)N(C)CC4` (stereo not drawn), the result was inactive.

On to `CC1(C)CC(/C=C\c2coc3ccc(Cl)cc3c2=O)=C(C#N)C(=O)O1`, for which the EC50 is more than 7.59 µM and the IC50 is more than 7.59 µM.

In the case of `Clc1ccc2sc3c(c2c1)CCNC3`, the outcome was inactive.

Take `CC(=O)/C=C/c1cccc(N=S)c1`: the EC50 was more than 2.82 µM and the IC50 is more than 2.82 µM.

Consider `CN1C(=O)N(C)C(N2CCCC2)c2c1nc1ccccn1c2=O` (stereo not drawn), for which the EC50 is more than 219 µM and the IC50 was 66.1 µM.

As to `CS(=O)(=O)NC1C(=O)c2ccccc2OC1c1ccccc1` (stereo not drawn), the EC50 was more than 200 µM and the IC50 was more than 200 µM.

As for `COc1ccc2cc1Oc1ccc(cc1)CC1=NCCc3cc(OC)c(cc31)Oc1c(OC)c(OC)c(OC)c3c1[C@H](C2)N(C)CC3`, the result was inactive.

Consider `CCOc1ccc(NC(=O)C2=C(C)NC(C)=C(C(=O)Nc3ccc(OCC)cc3)C2c2ccccc2)cc1`, for which the EC50 is more than 36.3 µM and the IC50 is more than 36.3 µM.

On to `Cc1cccc2c(=O)c([Se]c3coc4c(C)cccc4c3=O)coc12`, for which the EC50 was more than 33.1 µM and the IC50 is more than 33.1 µM.
